# Assay results as given in patent publication US10023592B2, “Bromodomain inhibitors” (Celgene Quanticel Research, Inc., priority 2013, dated 2018).
# Legend:
# BRD4(BD1) = BRD4(BD1) (Homo sapiens (Human), UniProt O60885); experiment: In vitro enzyme inhibition assay (BRD4 AlphaScreen); assay type: binding
# Procedure, shortened: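 His-tagged BRD4 tested by AlphaScreen for binding of biotinylated H4K5/8/12/16-tetraacetyl peptide. After 20 min at room temperature, streptavidin donor and nickel chelate acceptor beads added (5 μg/mL final each). IC50 determined.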
# [1] = test system: NCI-H460, human non-small cell lung cancer cells; experiment: Cell-MTS proliferation assay, NCI-H460; assay type: cell-based; conditions: Homo sapiens, 168 hr
# Procedure, shortened: (§1)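 Seeded for ~90% confluence at 7 days (Raji 15,000, HL-60 5,000, NCI-H460 3,000 cells/well); compound added 24 h post-plating as 11-point dilution, 100 μM to 2.0 nM final.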
# [2] = test system: Raji, human Burkitts lymphoma cells; experiment: Cell-MTS proliferation assay, Raji; assay type: cell-based; conditions: Homo sapiens, 168 hr
# Procedure, shortened: as §1
# [3] = test system: HL-60, human proleukemia cells; experiment: Cell-MTS proliferation assay, HL-60; assay type: cell-based; conditions: Homo sapiens, 168 hr
# Procedure, shortened: as §1
# [4] = in vitro enzyme inhibition assay
# [5] = NCI-H460, Cell-MTS proliferation
# [6] = Cell-MTS proliferation, NCI-H460 cells
# [7] = Cell-MTS proliferation, Raji cells
# [8] = Cell-MTS proliferation, HL-60 cells
SMILES,IC50 (BRD4(BD1); [4]),"IC50 [1, 5]","IC50 ([2]; Raji, Cell-MTS proliferation)","IC50 ([3]; HL-60, Cell-MTS proliferation)",IC50 (BRD4(BD1); class symbols A/B/C),"IC50 ([1]; NCI-H460, Cell-MTS, class symbols A/B/C)","IC50 ([2]; Raji, Cell-MTS, class symbols A/B/C)","IC50 ([3]; HL-60, Cell-MTS, class symbols A/B/C)","IC50 [1, 6]","IC50 [2, 7]","IC50 [3, 8]"
"Cn1cc(-c2ccc3c(=O)n(C)cc(-c4nc(CS(C)(=O)=O)ncc4OCC4CC4)c3c2)cn1 [Example 145, 4-[5-(cyclopropylmethoxy)-2-(methylsulfonylmethyl)pyrimidin-4-yl]-2-methyl-6-(1-methylpyrazol-4-yl)isoquinolin-1-one]",< 500 nM,> 5000 nM,500 to 5000 nM,< 500 nM,–,–,–,–,–,–,–
"COc1ccc(-c2cn(C)c(=O)c3cc(F)ccc23)cc1S(=O)(=O)NCc1ccccc1 [Example 60, N-benzyl-5-(7-fluoro-2-methyl-1-oxoisoquinolin-4-yl)-2-methoxybenzenesulfonamide]",–,–,–,–,500 to 5000 nM,> 5000 nM,< 500 nM,500 to 5000 nM,–,–,–
"CCS(=O)(=O)c1ccc(OCC2CC2)c(-c2cn(C)c(=O)cc2C)c1 [Example 466, 5-[2-(cyclopropylmethoxy)-5-ethylsulfonylphenyl]-1,4-dimethylpyridin-2-one]",< 500 nM,–,–,–,–,–,–,–,> 5000 nM,< 500 nM,< 500 nM
"CCS(=O)(=O)Nc1ccc(Oc2ccc(F)cc2F)c(-c2cn(C)c(=O)c3occc23)c1 [Example 253, N-[4-(2,4-difluorophenoxy)-3-(6-methyl-7-oxofuro[2,3-c]pyridin-4-yl)phenyl]ethanesulfonamide]",< 500 nM,> 5000 nM,< 500 nM,< 500 nM,–,–,–,–,–,–,–
"Cn1cc(-c2nc(NS(C)(=O)=O)ncc2Oc2ccc(F)cc2F)c2c(c1=O)CCCC2 [Example 172, N-[5-(2,4-difluorophenoxy)-4-(2-methyl-1-oxo-5,6,7,8-tetrahydroisoquinolin-4-yl)pyrimidin-2-yl]methanesulfonamide]",< 500 nM,> 5000 nM,500 to 5000 nM,500 to 5000 nM,–,–,–,–,–,–,–
"CCCc1ccc(S(C)(=O)=O)cc1-c1ccc(=O)n(C)c1 [Example 313, 1-methyl-5-(5-methylsulfonyl-2-propylphenyl)pyridin-2-one]",500 to 5000 nM,> 5000 nM,> 5000 nM,500 to 5000 nM,–,–,–,–,–,–,–
"Cn1cc(-c2cc(S(C)(=O)=O)ccc2NCC2CC2)ccc1=O [Example 468, 5-[2-(cyclopropylmethylamino)-5-methylsulfonylphenyl]-1-methylpyridin-2-one]",< 500 nM,–,–,–,–,–,–,–,> 5000 nM,> 5000 nM,500 to 5000 nM
"CCCOc1ccc(S(=O)(=O)CC)cc1-c1cn(C)c(=O)c2cnc(-c3cnn(C)c3)nc12 [Example 225, 8-(5-ethylsulfonyl-2-propoxyphenyl)-6-methyl-2-(1-methylpyrazol-4-yl)pyrido[4,3-d]pyrimidin-5-one]",< 500 nM,> 5000 nM,< 500 nM,< 500 nM,–,–,–,–,–,–,–
"Cn1cc(-c2cc(OCc3ccccc3OC(F)F)cc(S(C)(=O)=O)c2)c2ccoc2c1=O [Example 348, 4-[3-[[2-(difluoromethoxy)phenyl]methoxy]-5-methylsulfonylphenyl]-6-methylfuro[2,3-c]pyridin-7-one]",< 500 nM,500 to 5000 nM,< 500 nM,< 500 nM,–,–,–,–,–,–,–
"Cn1cc(-c2cc(S(C)(=O)=O)ccc2OCC2CC2)c2cc(Cl)oc2c1=O [Example 260, 2-chloro-4-[2-(cyclopropylmethoxy)-5-methylsulfonylphenyl]-6-methylfuro[2,3-c]pyridin-7-one]",< 500 nM,500 to 5000 nM,< 500 nM,< 500 nM,–,–,–,–,–,–,–
"CCOc1ccc(S(C)(=O)=O)cc1-c1cn(C)c(=O)c2ccccc12 [Example 177, 4-(2-ethoxy-5-methylsulfonylphenyl)-2-methylisoquinolin-1-one]",< 500 nM,> 5000 nM,500 to 5000 nM,< 500 nM,–,–,–,–,–,–,–
"CCS(=O)(=O)c1ccc(Nc2ccc(F)cc2F)c(-c2cc(C)c(=O)n(C)c2)c1 [Example 396, 5-[2-(2,4-difluoroanilino)-5-ethylsulfonylphenyl]-1,3-dimethylpyridin-2-one]",< 500 nM,–,–,–,–,–,–,–,> 5000 nM,< 500 nM,< 500 nM
